System: GSK3β
Assay: Inhibition of GSK3β during Neurog2-induced neuronal conversion of U251 cells
Format: cell-based, human

Row | SMILES | neuronal conversion efficiency of Neurog2-infected U251 cells (CHIR99021 5 μM for 20 days) | neuronal conversion efficiency of Neurog2-infected U251 cells (TWS119 10 μM for 20 days)
1 | Cc1c[nH]c(-c2cnc(NCCNc3ccc(C#N)cn3)nc2-c2ccc(Cl)cc2Cl)n1 [CHIR99021] | decreased neuronal conversion efficiency | –
2 | Nc1cccc(-c2cc3c(Oc4cccc(O)c4)ncnc3[nH]2)c1 [TWS119] | – | decreased neuronal conversion efficiency
